The values that follow are results of earlier work, collected in patent US6346251B1 (priority 1999, dated 2002).

The structures appear in SMILES notation. Bounds are passed on as bounds.

The test system of data set [1] is cancer. Particulars: Phase II testing.
Data set [2] has as its system human epidermoid cells, virally infected with HSV-2.
Data set [3] deals with human epidermoid cells.

As to `CC(=O)OC[C@]12CCC(C)=C[C@H]1O[C@@H]1[C@H](O)[C@@H](OC(C)=O)[C@@]2(C)[C@]12CO2` [Anguidine], in data set [1], the hematologic toxicity entry is “considerable hematologic toxicity” and the tumor response result was “low tumor response”.

As for `CC(=O)OC[C@]12CCC(C)=C[C@H]1O[C@@H]1[C@H](O)[C@@H](OC(C)=O)[C@@]2(C)[C@]12CO2` [DAS], in data set [2], the “Trichothecene Concentrations, Protein Synthesis Inhibition 50%” value was 2.3 ng/mL; the “Trichothecene Concentrations, Protein Synthesis Inhibition 80% (PIC80)” value was 4.0 ng/mL; the “Trichothecene Concentrations, Protein Synthesis Inhibition 85% (PIC85)” value was 4.2 ng/mL; the “Trichothecene Concentrations, Protein Synthesis Inhibition 90% (PIC90)” value was 4.5 ng/mL. Further, the “hyperactive protein synthesis inhibited” value in data set [2] was roughly 99%. Further, in data set [3], the “Trichothecene Concentrations, PIC100 max” value is 200 ng/mL; the “concentrations that did not reduce cell viability” value is recorded as “up to 200 ng/ml”; the nontoxic zone is less than 200 ng/mL; the safe level is 200 ng/mL.
